Source: EP0194905A1, “5',5'''-P1,P4-diadenosine-tetraphosphate alpha-,beta-phosphorylase and its use in the preparation of isotope-labelled nucleotides” (priority 1985, dated 1986)

Columns and labels:
[1] = target: T1, Ap4A-phosphorylase (Saccharomyces cerevisiae, UniProt P16550); test: Ap4A-phosphorylase activity: initial rates of phosphorolysis of Ap4A and related substrates (PEI-cellulose TLC, radioactivity); assay type: biochemical; conditions: for substrat de l'Ap4A-phosphorylase (behaviour as substrate): compounds structurally related to Ap4A, in presence of phosphate; for vitesses de phosphorolyse, % du taux observé pour l'Ap4A: standard incubation medium, 500 uM substrate; for conversion de l'Ap4A when phosphate is replaced: 10 mM in place of phosphate, 500 µM MnCl2 or 5 mM MgCl2
T1 construct: l'Ap4A phosphorylase est constituée d'une seule chaîne; endogenous in cells; host or cells: Saccharomyces cerevisiae yeast cells; enzyme purified by ammonium sulfate, DEAE-Sephacel, Sephadex G-100, hydroxyapatite and Sephadex G-75 superfine
T1 sequence (P16550 1-321): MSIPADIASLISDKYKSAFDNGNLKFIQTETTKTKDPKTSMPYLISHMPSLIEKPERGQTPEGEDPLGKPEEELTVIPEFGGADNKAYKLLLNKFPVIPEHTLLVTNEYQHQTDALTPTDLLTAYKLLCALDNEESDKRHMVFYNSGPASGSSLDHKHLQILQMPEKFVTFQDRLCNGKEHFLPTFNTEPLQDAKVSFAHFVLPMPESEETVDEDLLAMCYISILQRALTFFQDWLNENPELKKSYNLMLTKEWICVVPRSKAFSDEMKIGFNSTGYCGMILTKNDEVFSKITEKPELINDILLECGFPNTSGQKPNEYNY
Procedure: (§1) L'activité de l'Ap4A-phosphorylase a été déterminée à 37°C. Le mélange d'incubation standard contenait, dans un volume final de 25 ou 50 µl, du tampon 50 mM acide 4-(2-hydroxyéthyl)-1-pipérazine éthane sulfonique (Hepes)/KOH (pH 8,2), 1 mM 2-mercaptoéthanol, 2 % de glycérol, 500 µM MnCl2, […], 500 uM de [^3H]Ap4A (1 pmol = 20 cpm), de la sérum-albumine bovine (0,4 mg/ml) et une solution d'enzyme diluée de façon appropriée en présence de 2 mg/ml de sérum-albumine bovine. Dans certains cas, l'activité a été suivie à l'aide de [^32P]K2HPO4.
Pour mesurer les vitesses initiales, de phosphorolyse, on a déposé des prélèvements de 2 µl sur des couches minces de polyéthylèneimine-cellulose contenant un indicateur fluorescent (foumies par MERCK) après 2, 4, 8 et 16 min de réaction.
Des standards d'Ap4A et d'ADP ont été ajoutés et les chromatogrammes ont été développés tout d'abord pendant 15 min dans le méthanol à 75 %, puis pendant 1 h dans du chlorure de lithium 0,85 M. Les valeurs Rf des composés standards étaient respectivement de 0,15 (Ap4A) et 0,25 (ADP), la valeur Rf du phosphate était de 0,55. Les taches d'ADP visualisées sous lumière ultraviolette ont été découpées et immergées dans 5 ml de mélange de scintillation et la radioactivité a été mesurée. Au cours des différentes étapes de purification, l'enzyme a été testée en l'absence de radioactivité; les fractions actives ont été afors directement identifiées sur les chromatogrammes sous lumière ultraviolette.
La dégradation enzymatique de l'Ap4A par l'enzyme selon l'invention, c'est-à-dire l'Ap4A-phosphorylase, a été caractérisée par identification des produits de ladite réaction de dégradation par co-migration avec des composés standards authentiques sur des couches minces de polyéthylèneimine-cellulose. Cette identification a été confirmée sur une colonne de Lichrosorb RP-18 (MERCK) en utilisant un système HPLC (chromatographie liquide haute performance) avec une élution isocratique par du phosphate de potassium 25 mM, pH 5,3 selon la méthode de BREVET et al. décrite dans J.Biol.Chem. (1982), 257. 14613-14615. La colonne de chromatographie a été utilisée avec une pompe modèle 112, un injecteur modèle 210 et un détecteur d'absorbance modèle 160 (matériel BECKMAN), en opérant à 254 nm avec une sensibilité de 0,002 unité d'absorbance pleine échelle.

[2] = target: T2, AMP-désaminase (Rattus norvegicus, UniProt P10759); conditions: enzyme from rat muscle; cited from earlier work
T2 construct: host or cells: rat muscle
T2 sequence (P10759 1-747): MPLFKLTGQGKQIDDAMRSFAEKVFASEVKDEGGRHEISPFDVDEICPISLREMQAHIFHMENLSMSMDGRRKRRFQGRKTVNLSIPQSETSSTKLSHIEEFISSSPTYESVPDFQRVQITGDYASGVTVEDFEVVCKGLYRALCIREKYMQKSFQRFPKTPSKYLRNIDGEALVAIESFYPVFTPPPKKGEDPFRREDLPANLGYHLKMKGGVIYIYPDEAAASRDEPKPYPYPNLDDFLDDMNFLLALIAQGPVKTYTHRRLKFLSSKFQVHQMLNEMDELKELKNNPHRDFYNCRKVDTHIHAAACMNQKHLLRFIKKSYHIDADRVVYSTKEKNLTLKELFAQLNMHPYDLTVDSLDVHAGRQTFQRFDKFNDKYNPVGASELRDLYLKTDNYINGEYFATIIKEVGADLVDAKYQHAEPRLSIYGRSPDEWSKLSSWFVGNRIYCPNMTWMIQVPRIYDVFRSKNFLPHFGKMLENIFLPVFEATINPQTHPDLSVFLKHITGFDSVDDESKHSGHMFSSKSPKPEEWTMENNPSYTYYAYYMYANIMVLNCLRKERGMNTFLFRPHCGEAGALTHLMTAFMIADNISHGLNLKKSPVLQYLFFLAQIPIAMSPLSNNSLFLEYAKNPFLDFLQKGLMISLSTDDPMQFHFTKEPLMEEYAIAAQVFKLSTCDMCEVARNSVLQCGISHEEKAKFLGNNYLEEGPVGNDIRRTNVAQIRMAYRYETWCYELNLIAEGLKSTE

[3] = tested on: GMP-réductase; conditions: enzyme from Artemia; cited from earlier work
[4] = target: T3, GMP-réductase (Homo sapiens, UniProt P36959); conditions: enzyme from human erythrocytes; cited from earlier work
T3 construct: host or cells: human erythrocytes
T3 sequence (P36959 1-345): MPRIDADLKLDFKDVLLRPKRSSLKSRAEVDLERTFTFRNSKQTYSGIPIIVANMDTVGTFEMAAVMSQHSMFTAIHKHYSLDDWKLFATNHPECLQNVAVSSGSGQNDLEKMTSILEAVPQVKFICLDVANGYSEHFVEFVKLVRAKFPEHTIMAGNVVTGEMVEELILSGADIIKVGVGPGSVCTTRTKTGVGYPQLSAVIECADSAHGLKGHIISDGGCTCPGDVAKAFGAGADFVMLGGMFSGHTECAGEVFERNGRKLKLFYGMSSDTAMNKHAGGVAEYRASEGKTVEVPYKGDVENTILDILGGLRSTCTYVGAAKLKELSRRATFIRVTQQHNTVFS

[5] = target: T1, Ap4A-phosphorylase; test: Effect of divalent metal ions on initial rates of Ap4A phosphorolysis; assay type: biochemical
Procedure: Les vitesses initiales de la phosphorolyse de l'Ap4A ont été mesurées dans un milieu contenant 50 mM Hepes/KOH (pH 8,2); 1 mM de 2-mercaptoéthanol; 2 % de glycérol et 0,4 mg/ml de sérum-albumine bovine, 5 mM K2HPO4; 500 uM [^3H] Ap4A et différentes concentrations de chlorures de manganèse, de magnésium, de calcium, de cobalt ou de cadmium.
Les résultats obtenus sont indiqués sur le graphe de la figure 2 annexée sur lequel on a porté en ordonnées les vitesses initiales de phosphorolyse de l'Ap4A exprimées en pourcentages de la vitesse observée avec 500 uM MnCl2-(36 s-') et en abscisses la concentration en ions métalliques exprimée en mM.
Les différentes courbes correspondent respectivement aux chlorures ci-après : courbe A (O - O) = MnCl2 [formula] [formula] [formula] [formula]

[6] = substrate: Nc1ncnc2c1ncn2[C@@H]1O[C@H](COP(=O)(O)OS(=O)(=O)O)[C@@H](O)[C@H]1O; test: purified protein, by the assay type; conditions: other: NDP-P* exchange at optimum pH, 37°C
[7] = substrate: Nc1ncnc2c1ncn2[C@@H]1O[C@H](COP(=O)(O)OP(=O)(O)OP(=O)(O)OP(=O)(O)OC[C@H]2O[C@@H](n3cnc4c(N)ncnc43)[C@H](O)[C@@H]2O)[C@@H](O)[C@H]1O; test: Ap4A-phosphorylase activity: initial rates of phosphorolysis of Ap4A and related substrates (PEI-cellulose TLC, radioactivity); assay type: biochemical, Saccharomyces cerevisiae; conditions: other: 37°C, 50 mM Hepes/KOH pH 8,2, 500 µM MnCl2, 10 mM K2HPO4, 1 mM 2-mercaptoéthanol, 2 % glycérol, pH 8.2
Procedure: as §1
Pour mesurer les vitesses initiales, de phosphorolyse, on a déposé des prélèvements de 2 µl sur des couches minces de polyéthylèneimine-cellulose contenant un indicateur fluorescent (foumies par MERCK) après 2, 4, 8 et 16 min de réaction. […]
La dégradation enzymatique de l'Ap4A par l'enzyme selon l'invention, c'est-à-dire l'Ap4A-phosphorylase, a été caractérisée par identification des produits de ladite réaction de dégradation par co-migration avec des composés standards authentiques sur des couches minces de polyéthylèneimine-cellulose. […] La colonne de chromatographie a été utilisée avec une pompe modèle 112, un injecteur modèle 210 et un détecteur d'absorbance modèle 160 (matériel BECKMAN), en opérant à 254 nm avec une sensibilité de 0,002 unité d'absorbance pleine échelle.

[8] = substrate: Nc1ccn([C@@H]2O[C@H](COP(=O)(O)OP(=O)(O)O)[C@@H](O)[C@H]2O)c(=O)n1; test: NDP-P* exchange reaction catalysed by Ap4A-phosphorylase; assay type: biochemical, Saccharomyces cerevisiae; conditions: other: NDP-P* exchange at optimum pH, 37°C
Source text: (§2) On a estimé les constantes de Michaelis Km et les vitesses d'échange pour différents NDP au pH optimum, lequel varie en fonction des substrats. Les résultats obtenus sont rassemblés dans le tableau Il ci-après ainsi que les conditions expérimentales.

[9] = substrate: Nc1nc2c(ncn2[C@@H]2O[C@H](COP(=O)(O)OP(=O)(O)O)[C@@H](O)[C@H]2O)c(=O)[nH]1; test: as above; assay type: biochemical, Saccharomyces cerevisiae; conditions: other: NDP-P* exchange at optimum pH, 37°C
Source text: as §2

[10] = substrate: Nc1ncnc2c1ncn2[C@@H]1O[C@H](COP(=O)(O)OP(=O)(O)O)[C@@H](O)[C@H]1O; test: as above; assay type: biochemical, Saccharomyces cerevisiae; conditions: other: NDP-P* exchange at optimum pH, 37°C
Source text: as §2

[11] = substrate: O=c1ccn([C@@H]2O[C@H](COP(=O)(O)OP(=O)(O)O)[C@@H](O)[C@H]2O)c(=O)[nH]1; test: as above; assay type: biochemical, Saccharomyces cerevisiae; conditions: other: NDP-P* exchange at optimum pH, 37°C
Source text: as §2

Molecule: Nc1ncnc2c1ncn2[C@@H]1O[C@H](COP(=O)(O)OP(=O)(O)OP(=O)(O)OP(=O)(O)OP(=O)(O)OC[C@H]2O[C@@H](n3cnc4c(N)ncnc43)[C@H](O)[C@@H]2O)[C@@H](O)[C@H]1O (single isomer, unassigned; diad) [Ap5A, Diadénosine pentaphosphate]
- substrat de l'Ap4A-phosphorylase (behaviour as substrate) [1]: substrats
- vitesses de phosphorolyse, % du taux observé pour l'Ap4A [1]: 50%

Molecule: Nc1ncnc2c1ncn2[C@@H]1O[C@H](COP(=O)(O)OP(=O)(O)OP(=O)(O)OC[C@H]2O[C@@H](n3cnc4c(N)ncnc43)[C@H](O)[C@@H]2O)[C@@H](O)[C@H]1O (single isomer, unassigned; diad) [Ap,A, Diadénosine triphosphate]
- substrat de l'Ap4A-phosphorylase (behaviour as substrate) [1]: ne soient pas des substrats

Molecule: phosphate
- Km ([1]; phosphorolysis of Ap4A, read-out: Km du phosphate): 1000 µM

Molecule: sulfate
- conversion de l'Ap4A when phosphate is replaced [1]: aucune conversion

Molecule: Nc1ncnc2c1ncn2[C@@H]1O[C@H](COP(=O)(O)OP(=O)(O)OP(=O)(O)OP(=O)(O)OC[C@H]2O[C@@H](n3cnc4c(N)ncnc43)[C@H](O)[C@@H]2O)[C@@H](O)[C@H]1O (single isomer, unassigned; diad) [Ap4A, 5',5"'-P^1,P^4-diadénosine-tétraphosphate]
- vitesse de la réaction de phosphorolyse ([1]; Ap4A saturant): 36 s⁻¹
- substrat de l'Ap4A-phosphorylase (behaviour as substrate) [1]: substrat préféré
- effect on activité de l'AMP-désaminase [2]: double l'activité

Molecule: Nc1nc2c(ncn2[C@@H]2O[C@H](COP(=O)(O)OP(=O)(O)OP(=O)(O)OP(=O)(O)OC[C@H]3O[C@@H](n4cnc5c(=O)[nH]c(N)nc54)[C@H](O)[C@@H]3O)[C@@H](O)[C@H]2O)c(=O)[nH]1 [Gp4G, Diguanosine tétraphosphate]
- substrat de l'Ap4A-phosphorylase (behaviour as substrate) [1]: substrats
- vitesses de phosphorolyse, % du taux observé pour l'Ap4A [1]: 40%
- effect on GMP-réductase [3]: effet positif spécifique
- effect on GMP-réductase [4]: effet positif spécifique

Molecule: pyrophosphate
- conversion de l'Ap4A when phosphate is replaced [1]: aucune conversion

Molecule: Nc1ncnc2c1ncn2[C@@H]1O[C@H](COP(=O)(O)OP(=O)(O)OP(=O)(O)OP(=O)(O)O)[C@@H](O)[C@H]1O [p4A, Adénosine tétraphosphate]
- substrat de l'Ap4A-phosphorylase (behaviour as substrate) [1]: ne soient pas des substrats

Molecule: MnCl2
- vitesse initiale de phosphorolyse de l'Ap4A ([5]; 500 uM MnCl2, 5 mM K2HPO4, 500 uM [3H]Ap4A, pH 8,2 (100 % reference of figure 2)): 36 s-'
- activity of metal ions in supporting phosphorolyse de l'Ap4A ([5]; chlorides of Mn, Mg, Ca, Co, Cd at various concentrations (figure 2)): les plus actifs

B1: Ap4A-phosphorylase (Saccharomyces cerevisiae S288C) (protein)
chain: T1 sequence (P16550 1-321)
notes: l'Ap4A phosphorylase est constituée d'une seule chaîne; endogenous in cells; host or cells: Saccharomyces cerevisiae yeast cells; enzyme purified by ammonium sulfate, DEAE-Sephacel, Sephadex G-100, hydroxyapatite and Sephadex G-75 superfine
- Km [6]: 500 µM
- Km [7]: 60 µM
- Km [8]: 2800 µM
- Km [9]: 700 µM
- Km [10]: 740 µM
- Km [11]: 3700 µM
